System: Spodoptera littoralis (Egyptian cotton leafworm)
Experiment: Spodoptera littoralis cotton leaf disc spray test
Assay type: in vivo
Conditions: 200 ppm sprayed on cotton leaf discs, L1 larvae, 3 days after treatment; mortality, repellent effect, feeding behaviour, growth regulation
Protocol: This Example illustrates the pesticidal/insecticidal properties of compounds of formula (I). Test against were performed as follows:
Spodoptera littoralis (Egyptian cotton leafworm)
Cotton leaf discs were placed on agar in a 24-well microtiter plate and sprayed with test solutions at an application rate of 200 ppm. After drying, the leaf discs were infested with 5 L1 larvae. The samples were checked for mortality, repellent effect, feeding behaviour, and growth regulation 3 days after treatment (DAT). The following compounds gave at least 80% control of Spodoptera littoralis: CIII-49.

O=C(c1ccnc(Cl)c1)N1C[C@]2(CCN(C/C=C/c3ccc(Cl)cc3)C[C@H]2O)c2cc(Cl)ccc21 [CIII-49, 5-chloro-1-(2-chloropyridin-4-yl)carbonyl-1′-[trans-3-(4-chlorophenyl)allyl]-3′-hydroxy-spiro[indoline-3,4′-piperidine]]
control of Spodoptera littoralis: at least 80%
